Measurements reported in US11746100B2 (GLOBAL BLOOD THERAPEUTICS, INC., priority 2020, dated 2023).

Each compound was assayed against T1, human ferroportin (Homo sapiens, UniProt Q9NP59) (assay: Biological in-vitro ferroportin internalization assay (luciferase reporter)). Conditions: average pEC50; stably-transfected CHO cell line expressing human ferroportin tagged to a luciferase reporter; 6 h incubation with test compound.
T1 construct: luciferase reporter (read with the Nano-Glo Luciferase Assay System); expressed in transfected cells; host or cells: CHO cells, stably transfected, expression induced with doxycycline
T1 sequence (Q9NP59 1-571): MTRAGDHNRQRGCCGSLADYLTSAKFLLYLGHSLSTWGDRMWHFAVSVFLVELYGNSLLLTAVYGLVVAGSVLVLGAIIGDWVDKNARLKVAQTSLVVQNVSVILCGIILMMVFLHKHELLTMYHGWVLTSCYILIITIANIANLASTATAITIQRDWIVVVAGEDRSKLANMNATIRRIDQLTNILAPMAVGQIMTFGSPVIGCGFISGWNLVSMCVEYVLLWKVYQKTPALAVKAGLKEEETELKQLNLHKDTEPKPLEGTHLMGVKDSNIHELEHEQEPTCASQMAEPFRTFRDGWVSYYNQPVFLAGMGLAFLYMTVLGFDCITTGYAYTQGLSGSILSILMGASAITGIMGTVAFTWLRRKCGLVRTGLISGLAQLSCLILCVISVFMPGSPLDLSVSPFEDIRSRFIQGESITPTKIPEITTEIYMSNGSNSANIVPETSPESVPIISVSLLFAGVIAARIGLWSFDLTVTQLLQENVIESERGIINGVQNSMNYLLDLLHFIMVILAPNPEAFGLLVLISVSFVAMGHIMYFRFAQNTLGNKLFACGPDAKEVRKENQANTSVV
Assay type: cell-based
Method in brief: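 Stably transfected CHO cells expressing luciferase-tagged human ferroportin, plated 24 h with ferric ammonium citrate and induced with doxycycline for 24 h. Compounds incubated 6 h, then luciferase activity measured by Nano-Glo; average pEC50 reported.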

| Compound | pEC50 |
| --- | --- |
| COc1ccc(NC(=O)CN(C)c2nc(-c3cc4scnc4cn3)nc3c2CCC3)cn1 [Compound 304, N-(6-methoxypyridin-3-yl)-2-[methyl(2-{[1,3]thiazolo[4,5-c]pyridin-6-yl}-5H,6H,7H-cyclopenta[d]pyrimidin-4-yl)amino]acetamide] | 6.8 |
| CN(CC(=O)Nc1cccc(F)c1)c1nc(-c2cc(OCC3(O)CC3)ccn2)nc2c1CCC2 [Compound 307, N-(3-fluorophenyl)-2-[(2-{4-[(1-hydroxycyclopropyl)methoxy]pyri-din-2-yl}-5H,6H,7H-cyclopenta[d]pyrimidin-4-yl)(methyl)amino]acetamide] | 7.4 |
| CN(CC(=O)Nc1ccc(C2CC2)nc1)c1nc(-c2cc(OCCO)ccn2)nc2c1CCC2 [Compound 308, N-(6-cyclopropylpyridin-3-yl)-2-({2-[4-(2-hydroxyethoxy)pyridin-2-yl]-5H,6H,7H-cyclopenta[d]pyrimidin-4-yl}(methyl)amino)acetamide] | 8.1 |
| COc1ccc(NC(=O)[C@@H](C)N(C)c2nc(-c3cc(OCCO)ccn3)nc3c2CCC3)cn1 [Compound 309, (2R)-2-({2-[4-(2-hydroxyethoxy)pyridin-2-yl]-5H,6H,7H-cyclopenta[d]pyrimidin-4-yl}(methyl)amino)-N-(6-methoxypyridin-3-yl)propanamide] | 8.1 |
| C[C@H](C(=O)Nc1cnn(C)c1)N(C)c1nc(-c2cc(OCCO)ccn2)nc2c1CCC2 [Compound 310, (2R)-2-({2-[4-(2-hydroxyethoxy)pyridin-2-yl]-5H,6H,7H-cyclopenta[d]pyrimidin-4-yl}(methyl)amino)-N-(1-methyl-1H-pyrazol-4-yl)propanamide] | 7.4 |
| COc1ccc(NC(=O)[C@@H](C)N(C)c2nc(-c3cc(OC4COC4)ccn3)nc3c2CCC3)cn1 [Compound 312, (2R)-N-(6-methoxypyridin-3-yl)-2-[methyl({2-[4-(oxetan-3-yloxy)pyridin-2-yl]-5H,6H,7H-cyclopenta[d]pyrimidin-4-yl})amino]propanamide] | 7.7 |
| CN(CC(=O)Nc1ccc(F)cc1)c1nc(-c2cc3cnn(C)c3cn2)nc2c1CCC2 [Compound 313, N-(4-fluorophenyl)-2-[methyl(2-{1-methyl-1H-pyrazolo[3,4-c]pyridin-5-yl}-5H,6H,7H-cyclopenta[d]pyrimidin-4-yl)amino]acetamide] | 7.3 |
| CN(Cc1ncnn1-c1cccc(F)c1)c1nc(-c2cc(OCCO)ccn2)nc2c1CCC2 [Compound 315, 2-({2-[4-({[1-(3-fluorophenyl)-1H-1,2,4-triazol-5-yl]methyl}(methyl)amino)-5H,6H,7H-cyclopenta[d]pyrimidin-2-yl]pyridin-4-yl}oxy)ethan-1-ol] | 6.8 |
| Cc1ccc(NC(=O)[C@@H](C)N(C)c2nc(-c3cc(OCCO)ccn3)nc3c2CCC3)cn1 [Compound 316, (2R)-2-({2-[4-(2-hydroxyethoxy)pyridin-2-yl]-5H,6H,7H-cyclopenta[d]pyrimidin-4-yl}(methyl)amino)-N-(6-methylpyridin-3-yl)propanamide] | 7.8 |
| CN(CC(=O)NC(C)(C)C)c1nc(-c2cc(O[C@@H]3CCOC3)ccn2)nc2c1CCC2 [Compound 318, N-tert-butyl-2-[methyl(2-{4-[(3R)-oxolan-3-yloxy]pyridin-2-yl}-5H,6H,7H-cyclopenta[d]pyrimidin-4-yl)amino]acetamide] | 7.9 |
| CN(Cc1nncn1-c1cccc(F)c1)c1nc(-c2cc(OCCO)ccn2)nc2c1CCC2 [Compound 319] | 6.4 |
| CN(c1nc(-c2cc(OCCO)ccn2)nc2c1CCC2)[C@@H]1CCCN(c2cccc(F)c2)C1=O [Compound 321, (3R)-1-(3-fluorophenyl)-3-({2-[4-(2-hydroxyethoxy)pyridin-2-yl]-5H,6H,7H-cyclopenta[d]pyrimidin-4-yl}(methyl)amino)piperidin-2-one] | 7.1 |
| CN(CC(=O)N(C)C(C)(C)C)c1nc(-c2cc(OC3COC3)ccn2)nc2c1CCC2 [Compound 322, N-tert-butyl-N-methyl-2-[methyl({2-[4-(oxetan-3-yloxy)pyridin-2-yl]-5H,6H,7H-cyclopenta[d]pyrimidin-4-yl})amino]acetamide] | 7.7 |
| CN(CC(=O)Nc1ccc(Cl)cc1)c1nc(-c2cc(OC3COC3)ccn2)nc2c1CCC2 [Compound 325, N-(4-chlorophenyl)-2-[methyl({2-[4-(oxetan-3-yloxy)pyridin-2-yl]-5H,6H,7H-cyclopenta[d]pyrimidin-4-yl})amino]acetamide] | 7.9 |
| Cc1ccc(NC(=O)CN(C)c2nc(-c3cc(OC4COC4)ccn3)nc3c2CCC3)cc1 [Compound 326, 2-[methyl({2-[4-(oxetan-3-yloxy)pyridin-2-yl]-5H,6H,7H-cyclopenta[d]pyrimidin-4-yl})amino]-N-(4-methylphenyl)acetamide] | 7.9 |
| COc1ccc(NC(=O)CN(C)c2nc(-c3cc4ncsc4cn3)nc3c2CCC3)cn1 [Compound 329, N-(6-methoxypyridin-3-yl)-2-[methyl(2-{[1,3]thiazolo[5,4-c]pyridin-6-yl}-5H,6H,7H-cyclopenta[d]pyrimidin-4-yl)amino]acetamide] | 6.8 |
| Cc1ccc(NC(=O)CN(C)c2nc(-c3cc(OCC4(O)CC4)ccn3)nc3c2CCC3)cn1 [Compound 330, 2-[(2-{4-[(1-hydroxycyclopropyl)methoxy]pyri-din-2-yl}-5H,6H,7H-cyclopenta[d]pyrimidin-4-yl)(methyl)amino]-N-(6-methylpyridin-3-yl)acetamide] | 7.8 |
| Cc1ccc(NC(=O)CN(C)c2nc(-c3cc(OCCO)ccn3)nc3c2C(C)(C)CC3)cn1 [Compound 331, 2-({2-[4-(2-hydroxyethoxy)pyridin-2-yl]-5,5-dimethyl-5H,6H,7H-cyclopenta[d]pyrimidin-4-yl}(methyl)amino)-N-(6-methylpyridin-3-yl)acetamide] | 8.3 |

Continued, values first:

| pEC50 | Compound |
| --- | --- |
| 6.4 | Cc1cc(-c2nc3c(c(N(C)CC(=O)NC(C)(C)C)n2)CCC3)ncc1F [Compound 303, N-tert-butyl-2-{[2-(5-fluoro-4-methylpyridin-2-yl)-5H,6H,7H-cyclopenta[d]pyrimidin-4-yl](methyl)amino}acetamide] |
| 7.8 | C[C@H](C(=O)NC(C)(C)C)N(C)c1nc(-c2cc(OC3COC3)ccn2)nc2c1CCC2 [Compound 305] |
| 6.6 | COc1cc(-c2nc3c(c(N(C)CC(=O)Nc4ccc(C)nc4)n2)CCC3)ncc1F [Compound 306, 2-{[2-(5-fluoro-4-methoxypyridin-2-yl)-5H,6H,7H-cyclopenta[d]pyrimidin-4-yl](methyl)amino}-N-(6-methylpyridin-3-yl)acetamide] |
| 8.4 | C[C@H](C(=O)NC(C)(C)C)N(C)c1nc(-c2cc(OCCO)ccn2)nc2c1CCC2 [Compound 311, (2R)-N-tert-butyl-2-({2-[4-(2-hydroxyethoxy)pyridin-2-yl]-5H,6H,7H-cyclopenta[d]pyrimidin-4-yl}(methyl)amino)propanamide] |
| 7.6 | CN(CC(=O)Nc1ccc(F)cc1)c1nc(-c2cc3cn(C)nc3cn2)nc2c1CCC2 [Compound 314, N-(4-fluorophenyl)-2-[methyl(2-{2-methyl-2H-pyrazolo[3,4-c]pyridin-5-yl}-5H,6H,7H-cyclopenta[d]pyrimidin-4-yl)amino]acetamide] |
| 7.9 | CN(CC(=O)NC(C)(C)C)c1nc(-c2cc(O[C@H]3CCOC3)ccn2)nc2c1CCC2 [Compound 317, N-tert-butyl-2-[methyl(2-{4-[(3S)-oxolan-3-yloxy]pyridin-2-yl}-5H,6H,7H-cyclopenta[d]pyrimidin-4-yl)amino]acetamide] |
| 7.1 | CN(c1nc(-c2cc(OCCO)ccn2)nc2c1CCC2)[C@H]1CCCN(c2cccc(F)c2)C1=O [Compound 320, (3S)-1-(3-fluorophenyl)-3-({2-[4-(2-hydroxyethoxy)pyridin-2-yl]-5H,6H,7H-cyclopenta[d]pyrimidin-4-yl}(methyl)amino)piperidin-2-one] |
| 7.5 | CN(CC(=O)N1CCCCC1)c1nc(-c2cc(OC3COC3)ccn2)nc2c1CCC2 [Compound 323, 2-[methyl({2-[4-(oxetan-3-yloxy)pyridin-2-yl]-5H,6H,7H-cyclopenta[d]pyrimidin-4-yl})amino]-1-(piperidin-1-yl)ethan-1-one] |
| 7.4 | Cc1ccc(NC(=O)CN(C)c2nc(-c3cc(OC4COC4)ccn3)nc3c2CCC3)cn1 [Compound 324, 2-[methyl({2-[4-(oxetan-3-yloxy)pyridin-2-yl]-5H,6H,7H-cyclopenta[d]pyrimidin-4-yl})amino]-N-(6-methylpyridin-3-yl)acetamide] |
| 7.9 | COc1ccc(NC(=O)CN(C)c2nc(-c3cc(OC4COC4)ccn3)nc3c2CCC3)cc1 [Compound 327, N-(4-methoxyphenyl)-2-[methyl({2-[4-(oxetan-3-yloxy)pyridin-2-yl]-5H,6H,7H-cyclopenta[d]pyrimidin-4-yl})amino]acetamide] |
| 6.8 | CN(CC(=O)NC(C)(C)C)c1nc(-c2cc3ncsc3cn2)nc2c1CCC2 [Compound 328, N-tert-butyl-2-[methyl(2-{[1,3]thiazolo[5,4-c]pyridin-6-yl}-5H,6H,7H-cyclopenta[d]pyrimidin-4-yl)amino]acetamide] |
